Results as given in patent publication US20220400669A1, “COMPOUNDS AND METHODS FOR PROMOTING PLANT GROWTH” (King Abdullah University of Science and Technology, priority 2019, published 2022).

Columns and labels:
Striga hermonthica seeds = experiment: Striga hermonthica seed germination bioassay with root exudates of treated rice seedlings; format: in vivo
Method: For SL analysis, one-week-old seedlings were transferred into 50 ml falcon tubes (two seedlings per tube), containing half-strength Hoagland nutrient solution with K2HPO4.2H2O (+Pi), and grown in the biochamber for one week. Rice seedlings were then subjected to phosphate deficiency (−Pi) for another one week. On the day of root exudates collection, rice seedlings were first treated with 5 μM Zaxinone, or MZ compounds for 6 h, and then root exudates and root tissues were collected from each tube for LC-MS/MS analysis and Striga bioassays. Striga hermonthica seed germination bioassays were conducted by following the procedure as described previously. About 50-100 sterilized Striga seeds were spread on a glass fiber filter paper disc. Then 12 discs with Striga seeds were put on a sterilized filter paper, moistened with 3 ml sterilized water in a 90 mm petri plate. The plates were sealed with parafilm and cover with aluminum foil. All the plates were kept at 30° C. for 10 days for pre-conditioning. On 11th day, six dry discs with pre-conditioned seeds were selected and put in a 90 mm petri-dish. A filter paper ring moistened with 0.9 ml sterile MilliQ water was placed in the plate. The root exudates collected from Zaxinone or MZ compounds treated rice seedlings was applied at 50 μl on each six disc. Sterile MilliQ water and standard SL analog GR24 (2.5 μM) were included as a negative and positive control, respectively. After application, Striga seeds were incubated in dark at 30° C. for 24 hours. Germination (seeds with radicle emerging through seed coat) was scored under a binocular microscope, and germination rate (%) was calculated.

[1] = tested on: strigolactones (4-deoxyorobanchol, orobanchol) release; experiment: LC-MS/MS quantification of SLs in rice root exudates; format: in vivo; details: 5 μM
Method: (§1) For SL analysis, one-week-old seedlings were transferred into 50 ml falcon tubes (two seedlings per tube), containing half-strength Hoagland nutrient solution with K2HPO4.2H2O (+Pi), and grown in the biochamber for one week. Rice seedlings were then subjected to phosphate deficiency (−Pi) for another one week. On the day of root exudates collection, rice seedlings were first treated with 5 μM Zaxinone, or MZ compounds for 6 h, and then root exudates and root tissues were collected from each tube for LC-MS/MS analysis and Striga bioassays.
For the quantification of SLs in rice root exudates, 50 ml of root exudates spiked with 0.672 ng of D6-5-deoxystrigol, was brought on a 500 mg/3 ml fast SPE C18 column preconditioned with 6 ml of methanol and 3 ml of water. After washing with 3 ml of water, SLs were eluted with 5 ml of acetone. The 4-deoxyorobanchol fraction (acetone-water solution) was concentrated to SL aqueous solution (˜500 μl), followed by the extraction with 1 ml of ethyl acetate. 750 μl of SLs enriched organic phase was then transferred to 1.5 ml tube and evaporated to dryness under vacuum. The dried extract was dissolved in 100 μl of acetonitrile:water (25:75, v:v) and filtered through a 0.22 µm filter for LC-MS/MS analysis.

[2] = tested on: strigolactones (4-deoxyorobanchol, orobanchol) content; experiment: LC-MS/MS quantification of SLs in rice root tissues; format: in vivo; details: Pi-starved WT rice, 5 μM, 6 hours
Method: as §1
For the quantification of SLs in rice root, plant tissue material was lyophilized and grinded. Approximately 20 mg root tissue spiked with 0.672 ng of D6-5-deoxystrigol was extracted with 2 ml of ethyl acetate in an ultrasound bath (Branson 3510 ultrasonic bath) for 15 min, followed by centrifugation for 8 min at 3800 rpm at 4° C. The supernatant was collected and the pellet was re-extracted with 2 ml of ethyl acetate. Then the two supernatants were combined and dried under vacuum. The residue was dissolved in 100 μl of ethyl acetate and 2 ml of hexane. The resulting extract solution was loaded on a Silica gel SPE column (500 mg/3 ml) preconditioned with 3 ml of ethyl acetate and 3 ml of hexane. […] 4-deoxyorobanchol was analyzed by using HPLC-Q-Trap-MS/MS with MRM mode. […]

[3] = Chemical stability in aqueous solution by HPLC; format: physicochemical; details: 14-day HPLC analysis, room temperature (21±1° C.), pH 5.0-6.0 aqueous solution; compared with MZ5
Method: MZ3, and MZ5 were tested for their chemical stability at 21±1° C. with pH 5.0-6.0 aqueous solution following the protocol described recently. 50 μl of each compound solutions (1 mg ml-1) was prepared with 175 μl ethanol and 750 μl Mili-Q water. Thereafter, 25 μl Indanol (1 mg ml-1, internal standard) was spiked in 975 μl previous prepared solution. The degradation was monitored at a time course by UPLC analysis using an Agilent HPLC ZORBAX Eclipse XDB-C18 column (3.5 μm, 4.6×150 mm), eluted first by 5% acetonitrile in water for 0.5 min then by a gradient flow from 5% to 100% acetonitrile within 18 min, and by 100% acetonitrile for 5 min. The column was operated at 40° C. at 0.35 ml min^−1 flow rate. Compounds eluted from the column were detected with a photodiode array detector, and the relative quantity of non-degraded amount was calculated by integration comparison with Indanol.
Zaxinone was tested under the same conditions for comparison. Synthetic zaxinone was purchased (customized synthesis) from Buchem B.V. (Apeldoorn, The Netherlands).

COc1ccc(Oc2cccc(/C=C/C(C)=O)c2)cc1 [MZ3, (E)-4-(3-(4-methoxyphenoxy)phenyl)but-3-en-2-one]
lowering of Striga seed germinating activity of collected exudates (Striga hermonthica seeds; exudates of Pi-starved WT rice seedlings exposed to 5 μM for 6 hours (FIG. 10)): around 40% | decrease of Striga seed germination rate (Striga hermonthica seeds; exudates of rice seedlings treated with 5 μM compound, Pi starvation (FIG. 2)): ~45% | Oro content in root exudates ([1]; Pi-starved WT rice, 6 hours, control 20): 5 pgmg-1dry-root-weight | 4DO content in root exudates ([1]; Pi-starved WT rice, 6 hours, control 25): 10 pgmg-1dry-root-weight | effect on 4-deoxyorobanchol relative to Zaxinone ([1]; roots and root exudates, Pi-starved WT rice, 6 hours): significantly stronger | SL level of the root exudate ([1]; wild-type rice seedlings, Pi-starvation, 6 h, compared with Zaxinone (FIGS. 19, 20A-20B)): obvious effect | SL content in zas mutant (high SL phenotype) ([1]; zas mutant rice roots and root exudates, Pi starvation (FIGS. 11A-11B)): strongly inhibited | Oro content in roots ([2]; control 0.6): 0.1 pgmg-1dry-root-weight | 4DO content in roots ([2]; control 2.5): 0.5 pgmg-1dry-root-weight | stability (relative amount of non-degraded compound) [3]: much more stable
